Where two headings read alike, the source gives them in different places.
Tests used:
Wee-1 kinase = Wee-1 kinase (Homo sapiens (Human), UniProt P30291); assay: Measurement of Wee-1 kinase activity (ADP-Glo luminescence); format: biochemical
Summary of the method: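 Activated Wee-1 preincubated 30 min at RT with compound in Tris/MgCl2 buffer with BSA and DTT, then reacted 1 h at RT with poly(Lys,Tyr 4:1) (2.0 μg/mL) and 30 μM ATP as added aliquot. ADP formed measured by ADP-Glo luminescence; IC50 by non-linear regression of % inhibition.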

[1] = test system: phosphorylation of Cdc2 at Tyr15; assay: ELISA for phosphorylation of Cdc2 at Tyr15 in HT-29 / HCT-116 cells; format: cell-based; conditions: Homo sapiens
Experimental: Method 2: Determining the Effect of Compounds on the Phosphorylation of Cdc2 at Tyr15
The colorectal cancer cell lines HT-29 and HCT-116 were purchased from the ATCC and routinely maintained in McCoy's Medium (Invitrogen) supplemented with 10% Foetal Calf Serum.
The cells were trypsinised from their growing vessel and counted, 100 μL of cell suspension containing 6000 cells was pipetted into black 96 well Co-star plates and incubated overnight to allow adherence to the surface at a temperature of 37° C. and an atmosphere of 5% CO2. Test compounds were formulated in DMSO and diluted in foetal calf serum supplemented medium. Incubating medium was removed by aspiration and diluted drug supplemented medium added to each well.
The plate was returned to the incubator for an additional eight hours at 37° C. and an atmosphere of 5% CO2. Post incubation, the drug supplemented medium was aspirated from each well and the cells were washed once in ice-cold phosphate buffered saline (PBS). 100 μL of cell lysis buffer (Cell Signalling Technologies #9803) containing 20 mM Tris, 150 mM NaCl, 1 mM EDTA, 1 mM EGTA, 1% Triton-X100, 2.5 mM sodium pyrophosphate, 1 mM glycerophosphate, 1 mM Na3VO4 and 1 μg/mL leupeptin was added to each well of the 96 well plate and incubated at 4° C. for 30 min. The samples on the plate were snap frozen at −80° C. until required. Immediately before the continuation of the assay, the sample plate was thawed and centrifuged at 4° C. for 10 min and the supernatant transferred to secondary tubes or 96 well plate.
Cell supernatant was mixed in a ratio of 1:1 with sample dilutent buffer and vortexed for one minute. 100 μL of diluted sample was pipetted into pre-coated plates containing a rabbit polyclonal antibody for phospho-cdc2 (Tyr15) (Cell Signalling Technologies PathScan kit #7176). The plate was sealed and incubated overnight at 4° C.
The plate seal was removed and the well contents aspirated, followed by 3×5 min washes with 200 μL of diluted wash buffer. Between each wash the plate was tapped firmly onto blotting paper to ensure the removal of all kit solution. 100 μL of kit detection antibody was added to each well and the plate re-sealed and incubated at 37° C. for 1 h. Post incubation the plate was washed and processed in a similar manner to that previously described.
100 μL of horseradish peroxidise-linked secondary antibody was added to each test well, the plate sealed and incubated for thirty minutes at 37° C. Post incubation, the plate was washed as previously stated, followed by the addition of 100 μL of 3,3′,5,5′ tetramethylbenzidine (TMB reagent). The plate was sealed and incubated at RT for 30 min.
100 μL of stop solution was added to each well and the underside of the plate wiped with a lint-free tissue, prior to spectrophotometric determination. Absorbance from each well was read at 450 nm within 30 min of the addition of the stop solution.
The percentage of phospho-cdc2 was calculated compared to DMSO control and plotted versus the concentration of inhibitor using GraphPad Prism. Data was fitted using non-linear regression analysis and IC50 values generated.

[2] = 8 h, Table 2, colorectal cancer cells, eight hours incubation, read-out: ELISA p-CDC2 EC50

Chain of Wee-1 kinase (P30291 whole entry): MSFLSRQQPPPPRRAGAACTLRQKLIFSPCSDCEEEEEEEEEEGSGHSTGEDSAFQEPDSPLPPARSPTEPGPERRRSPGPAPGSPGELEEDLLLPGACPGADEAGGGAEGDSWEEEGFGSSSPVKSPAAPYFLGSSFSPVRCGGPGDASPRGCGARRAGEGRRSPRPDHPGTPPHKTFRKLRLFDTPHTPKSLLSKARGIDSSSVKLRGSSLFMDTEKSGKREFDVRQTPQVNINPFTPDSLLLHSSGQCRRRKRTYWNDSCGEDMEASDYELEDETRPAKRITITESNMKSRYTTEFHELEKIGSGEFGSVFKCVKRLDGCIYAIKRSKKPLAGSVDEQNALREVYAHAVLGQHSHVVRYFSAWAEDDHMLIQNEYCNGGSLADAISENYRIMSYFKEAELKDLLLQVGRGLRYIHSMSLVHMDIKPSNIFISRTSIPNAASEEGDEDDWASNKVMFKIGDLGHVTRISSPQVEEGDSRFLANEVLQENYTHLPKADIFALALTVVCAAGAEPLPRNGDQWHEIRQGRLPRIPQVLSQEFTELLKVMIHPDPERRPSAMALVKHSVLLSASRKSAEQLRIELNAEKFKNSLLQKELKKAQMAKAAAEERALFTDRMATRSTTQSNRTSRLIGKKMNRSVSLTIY

Row | SMILES | IC50 (Wee-1 kinase; read-out: Wee1 IC50) | EC50 [1, 2] | also measured
1 | C=CCn1c(=O)c2cnc(Nc3ccc(N4CCN(C(C)C)CC4)cc3)nc2n1-c1cccc(N=S(C)(C)=O)n1 [Example 7, 1-(6-{[Dimethyl(oxo)-λ^6-sulfanylidene]amino}pyridine-2-yl)-2-(prop-2-en-1-yl)-6-({4-[4-(propan-2-yl)piperazin-1-yl]phenyl}amino)-1H,2H,3H-pyrazolo[3,4-d]pyrimidin-3-one] | 0.7 nM | 9 nM | –
2 | C=CCn1c(=O)c2cnc(Nc3ccc(N4CCN(C)CC4)cc3)nc2n1-c1cccc(N=S(C)(C)=O)c1 [Example 16, 1-(3-{[Dimethyl(oxo)-λ^6-sulfanylidene]amino}phenyl)-6-{[4-(4-methylpiperazin-1-yl)phenyl]amino}-2-(prop-2-en-1-yl)-1H,2H,3H-pyrazolo[3,4-d]pyrimidin-3-one] | 1 nM | – | –
3 | CC(C)n1c(=O)c2cnc(Nc3ccc(N4CCNCC4)cc3)nc2n1-c1cccc(N=S2(=O)CCCC2)n1 [Example 59, 1-{6-[(1-Oxo-1λ^6-thiolan-1-ylidene)amino]pyridin-2-yl}-6-{[4-(piperazin-1-yl)phenyl]amino}-2-(propan-2-yl)-1H,2H,3H-pyrazolo[3,4-d]pyrimidin-3-one] | 1.2 nM | – | –
4 | CC(C)n1c(=O)c2cnc(Nc3ccc(C#N)cc3)nc2n1-c1cccc(N=S(C)(C)=O)n1 [Example 71, 4-{[1-(6-{[Dimethyl(oxo)-λ^6-sulfanylidene]amino}pyridin-2-yl)-3-oxo-2-(propan-2-yl)-1H,2H,3H-pyrazolo[3,4-d]pyrimidin-6-yl]amino}benzonitrile] | 26 nM | – | –
5 | CC(C)n1c(=O)c2cnc(NC3CCC3)nc2n1-c1cccc(N=S(C)(C)=O)n1 [Example 47, 6-(Cyclobutylamino)-1-(6-{[dimethyl(oxo)-λ^6-sulfanylidene]amino}pyridin-2-yl)-2-(propan-2-yl)-1H,2H,3H-pyrazolo[3,4-d]pyrimidin-3-one] | 67 nM | – | –
6 | C=CCn1c(=O)c2cnc(Nc3cnn(C)c3)nc2n1-c1cccc(N=S(C)(C)=O)n1 [Example 37, 1-(6-{[Dimethyl(oxo)-λ^6-sulfanylidene]amino}pyridin-2-yl)-6-[(1-methyl-1H-pyrazol-4-yl)amino]-2-(prop-2-en-1-yl)-1H,2H,3H-pyrazolo[3,4-d]pyrimidin-3-one] | 1.3 nM | – | –
7 | C=CCn1c(=O)c2cnc(Nc3ccc(N4CCOCC4)cc3)nc2n1-c1cncc(N=S(C)(C)=O)n1 [Example 51, 1-(6-{[Dimethyl(oxo)-λ^6-sulfanylidene]amino}pyrazin-2-yl)-6-{[4-(morpholin-4-yl)phenyl]amino}-2-(prop-2-en-1-yl)-1H,2H,3H-pyrazolo[3,4-d]pyrimidin-3-one] | 0.6 nM | – | –
8 | C=CCn1c(=O)c2cnc(Nc3cnn(CC(F)(F)F)c3)nc2n1-c1cccc(N=S(C)(C)=O)n1 [Example 85, 1-(6-{[Dimethyl(oxo)-λ^6-sulfanylidene]amino}pyridin-2-yl)-2-(prop-2-en-1-yl)-6-{[1-(2,2,2-trifluoroethyl)-1H-pyrazol-4-yl]amino}-1H,2H,3H-pyrazolo[3,4-d]pyrimidin-3-one] | 0.6 nM | – | –
9 | C=CCn1c(=O)c2cnc(Nc3ccc(N4CCNCC4)c(Cl)c3)nc2n1-c1cccc(N=S(C)(C)=O)n1 [Example 14, 6-{[3-Chloro-4-(piperazin-1-yl)phenyl]amino}-1-(6-{[dimethyl(oxo)-λ^6-sulfanylidene]amino}pyridine-2-yl)-2-(prop-2-en-1-yl)-1H,2H,3H-pyrazolo[3,4-d]pyrimidin-3-one] | 0.8 nM | 5 nM | –
10 | C=CCn1c(=O)c2cnc(Nc3ccc(C(F)(F)F)nc3)nc2n1-c1cccc(N=S(C)(C)=O)n1 [Example 81, 1-(6-{[Dimethyl(oxo)-λ^6-sulfanylidene]amino}pyridin-2-yl)-2-(prop-2-en-1-yl)-6-{[6-(trifluoromethyl)pyridin-3-yl]amino}-1H,2H,3H-pyrazolo[3,4-d]pyrimidin-3-one] | 1.3 nM | – | –
11 | CC(C)n1c(=O)c2cnc(Nc3ccc(N4CCN(C)CC4)cc3)nc2n1-c1cccc(N=S(C)(C)=O)n1 [Example 20, 1-(6-{[Dimethyl(oxo)-λ^6-sulfanylidene]amino}pyridin-2-yl)-6-{[4-(4-methylpiperazin-1-yl)phenyl]amino}-2-(propan-2-yl)-1H,2H,3H-pyrazolo[3,4-d]pyrimidin-3-one] | 1.4 nM | 47 nM | IC50 (Wee-1 kinase; Table 6, Present Invention, read-out: Wee-1/nM): 1.4 nM; EC50 ([1]; Table 6, Present Invention, read-out: ELISA/nM): 47 nM

More lines, in order of falling IC50 (Wee-1 kinase; read-out: Wee1 IC50), values ahead:

Row | IC50 (Wee-1 kinase; read-out: Wee1 IC50) | EC50 [1, 2] | SMILES | also measured
12 | 0.6 nM | 28 nM | C=CCn1c(=O)c2cnc(Nc3ccc(N4CCN[C@H](COC)C4)cc3)nc2n1-c1cccc(N=S(C)(C)=O)n1 [Example 76, 1-(6-{[Dimethyl(oxo)-λ^6-sulfanylidene]amino}pyridin-2-yl)-6-({4-[(3S)-3-(methoxymethyl)piperazin-1-yl]phenyl}amino)-2-(prop-2-en-1-yl)-1H,2H, 3H-pyrazolo[3,4-d]pyrimidin-3-one] | –
13 | 0.4 nM | 4 nM | C=CCn1c(=O)c2cnc(Nc3ccc(N4CCNCC4)c(C)c3)nc2n1-c1cccc(N=S(C)(C)=O)n1 [Example 26, 1-(6-{[Dimethyl(oxo)-λ^6-sulfanylidene]amino}pyridin-2-yl)-6-{[3-methyl-4-(piperazin-1-yl)phenyl]amino}-2-(prop-2-en-1-yl)-1H,2H,3H-pyrazolo[3,4-d]pyrimidin-3-one] | –
14 | 0.4 nM | – | CC(C)n1c(=O)c2cnc(Nc3ccc(N4CCOCC4)cc3)nc2n1-c1cccc(N=S(C)(C)=O)n1 [Example 43, 1-(6-{[Dimethyl(oxo)-λ^6-sulfanylidene]amino}pyridin-2-yl)-6-{[4-(morpholin-4-yl)phenyl]amino}-2-(propan-2-yl)-1H,2H,3H-pyrazolo[3,4-d]pyrimidin-3-one] | –
15 | 0.2 nM | 6 nM | C=CCn1c(=O)c2cnc(Nc3ccc(N(C)C)cc3)nc2n1-c1cccc(N=S(C)(C)=O)n1 [Example 57, 1-(6-{[Dimethyl(oxo)-λ^6-sulfanylidene]amino}pyridin-2-yl)-6-{[4-(dimethylamino)phenyl]amino}-2-(prop-2-en-1-yl)-1H,2H,3H-pyrazolo[3,4-d]pyrimidin-3-one] | IC50 (Wee-1 kinase; Table 7, data obtained as described in the experimental section of the current invention, read-out: Wee-1/nM): 0.2 nM
16 | 0.2 nM | – | C=CCn1c(=O)c2cnc(Nc3ccc(F)cc3)nc2n1-c1cccc(N=S(C)(C)=O)n1 [Example 40, 1-(6-{[Dimethyl(oxo)-λ^6-sulfanylidene]amino}pyridin-2-yl)-6-[(4-fluorophenyl)amino]-2-(prop-2-en-1-yl)-1H,2H,3H-pyrazolo[3,4-d]pyrimidin-3-one] | –
17 | 0.1 nM | 7 nM | C=CCn1c(=O)c2cnc(Nc3ccc(N4C[C@H]5COC[C@H]5C4)cc3)nc2n1-c1cccc(N=S(C)(C)=O)n1 [Example 67, 6-({4-[(3aR,6aS)-Hexahydro-1H-furo[3,4-c]pyrrol-5-yl]phenyl}amino)-1-(6-{[dimethyl(oxo)-λ^6-sulfanylidene]amino}pyridin-2-yl)-2-(prop-2-en-1-yl)-1H,2H, 3H-pyrazolo[3,4-d]pyrimidin-3-one] | –
18 | 0.1 nM | 2 nM | C=CCn1c(=O)c2cnc(Nc3ccc(N4CCOCC4)c(C)c3)nc2n1-c1cccc(N=S(C)(C)=O)n1 [Example 21, 1-(6-{[Dimethyl(oxo)-λ^6-sulfanylidene]amino}pyridin-2-yl)-6-{[3-methyl-4-(morpholin-4-yl)phenyl]amino}-2-(prop-2-en-1-yl)-1H,2H,3H-pyrazolo[3,4-d]pyrimidin-3-one] | –
